32 compounds from US4654348A, “Pyrazolo[4,3-d]pyrimidine derivative, process for its production, antihyperlipidemic agent containing it, its intermediate, and process for the production of the intermediate” (Nissan Chemical Industries Ltd., priority 1984, dated 1987) can be followed below.

The subject of the data set is emulsion-induced hyperlipidemic rats. The data set is described as follows: Test 1: antihyperlipidemic activity in emulsion-induced hyperlipidemic rats (serum Chol, HDL-Chol, liver weight). It is filed as in vivo, male S.D. rats. The following applies: 3 days, vs control; for inhibition in vivo at 300 mg/kg / change in vivo at 300 mg/kg: Rattus norvegicus, po, 72 h, 300 mg/kg/day via stomach tube; for inhibition in vivo at 300 mg/kg: read-out: Reduction rate of serum Chol.; for change in vivo at 300 mg/kg: read-out: Increase rate of serum HDL-Chol; for Degree of hepatomegaly (change rate of the liver weight): liver weight per 100 g body weight, 300 mg/kg/day. On the procedure:
The antihyperlipidemic activity in emulsion-induced hyperlipidemic rats:
Male S.D. rats weighing 80-90 g (4 weeks old) were used. They were divided into groups of 5 to 6 rats each. The test compounds suspended in 0.5% CMC-Na(carboxymethyl cellulose sodium salt) were given to the rats in a daily dose of 4 ml/kg (i.e. 300 mg/kg of the test compounds) via stomach tube every 10:00 a.m. After 30 min., lipids emulsion having the following composition was orally given to the rats in an amount of 2.5 ml per rat.
Cholic acid sodium salt 10.0 g
During the experimental period of 3 days, the rats were fed on a standard commercial diet and water ad libitum. […] The total cholesterol and HDL cholesterol were measured.
The weight of the liver was measured. To the control group, only the aqueous CMC-Na solution and the lipids emulsion were given.
The fractionation of lipoproteins was conducted by a dextran sulfate-MgCl2 precipitation method.
Cholesterol in serum was measured by means of a cholesterol measuring kit (Cholesterol C-Test Wako, manufactured by Wako Junyaku Co., Ltd.), and cholesterol in HDL was measured by means of NC Hi-Set, manufactured by Nippon Chemiphar Co., Ltd.
Further, the reduction rate of Chol was calculated by the following equation. [formula] where A is the amount of serum Chol (mg/dl) of the control group, and B is the amount of serum Chol (mg/dl) of the group to which the therapeutic agent was administered.
Likewise, the increase rate of HDL-Chol was calculated by the following equation. [formula] where C is the amount of serum HDL-Chol (mg/dl) of the control group, and D is the amount of serum HDL-Chol (mg/dl) of the group to which the therapeutic agent was administered.
The degree of hepatomegaly (i.e. the change rate of the liver weight) was calculated by the following equation. [formula] where E is the liver weight (g) per 100 g of the body weight of the control group, and F is the liver weight (g) per 100 g of the body weight of the group to which the therapeutic agent was administered.

As for `CCCCCCCCCCCCOc1c2ncnc(SCC(=O)OCC)c2nn1C` [Example 2, 2-Methyl-3-n-dodecyloxy-7-ethoxycarbonylmethylthio-pyrazolo[4,3-d]pyrimidine], the inhibition in vivo at 300 mg/kg is 36%.
Still for that read-out and setting: in the case of `CCCCCCCCCCCCCCOc1c2ncnc(SCC(=O)OCC)c2nn1C` [Example 3] it was 41%.
Consider `CCCCCCCCCCCCCCCOc1c2ncnc(SCC(=O)OCC)c2nn1C` [Example 4, 2-Methyl-3-n-pentadecyloxy-7-ethoxycarbonylmethylthio-pyrazolo[4,3-d]pyrimidine], for which the change in vivo at 300 mg/kg came out at 20%, the inhibition in vivo at 300 mg/kg was 48% and the “Degree of hepatomegaly (change rate of the liver weight)” value is reported as “+2%”.
For `CCCCCCCCCCCCCCCCCOc1c2ncnc(SCC(=O)OCC)c2nn1C` [Example 5] the same measures were 38%, 21% and “+3%”.
For `CCCCCCCCCCCCCCCCCCOc1c2ncnc(SCC(=O)OCC)c2nn1C` [Example 6, 2-Methyl-3-n-octadecyloxy-7-ethoxycarbonylmethylthio-pyrazolo[4,3-d]pyrimidine] the same measures were 9%, 31% and -1%.
For `CCCCCCCCCCCCCCCCCCCCOc1c2ncnc(SCC(=O)OCC)c2nn1C` [Example 8, 2-Methyl-3-n-eicosanyloxy-7-ethoxycarbonylmethylthio-pyrazolo[4,3-d]pyrimidine], the inhibition in vivo at 300 mg/kg came out at 37%.
On the same count and under the same terms, the value for `CCCCCCCCCCCCCCCCOc1c2ncnc(SCC(=O)OC)c2nn1C` [Example 15, 2-Methyl-3-n-hexadecyloxy-7-methoxycarbonylmethylthio-pyrazolo[4,3-d]pyrimidine] was 53%.
As to `CCCCCCCCCCCCCCCCOc1c2ncnc(SCC(=O)OC(C)C)c2nn1C` [Example 16, 2-Methyl-3-n-hexadecyloxy-7-isopropoxycarbonylmethylthio-pyrazolo[4,3-d]pyrimidine], the inhibition in vivo at 300 mg/kg was determined as 26%.
As to `CCCCCCCCCCCCCCCCOc1c2ncnc(SCCCC(=O)OCC)c2nn1C` [Example 17, 2-Methyl-3-n-hexadecyloxy-7-(3-ethoxycarbonylpropylthio)-pyrazolo[4,3-d]pyrimidine], the inhibition in vivo at 300 mg/kg was found to be 49% and the “Degree of hepatomegaly (change rate of the liver weight)” value is on record as “+5%”.
Regarding `CCCCCCCCCCCCCCCCOc1c2ncnc(SCC(=O)c3ccccc3)c2nn1C` [Example 18, 2-Methyl-3-n-hexadecyloxy-7-benzoylmethylthio-pyrazolo[4,3-d]pyrimidine], the change in vivo at 300 mg/kg was determined as 42%, the inhibition in vivo at 300 mg/kg amounted to 35% and the “Degree of hepatomegaly (change rate of the liver weight)” value is given as “+4%”.
As for `CCCCCCCCCCCCCCCCOc1c2ncnc(SCc3ccccc3)c2nn1C` [Example 19, 2-Methyl-3-n-hexadecyloxy-7-benzylthio-pyrazolo[4,3-d]pyrimidine], the change in vivo at 300 mg/kg stood at 31%, the inhibition in vivo at 300 mg/kg was found to be 42% and the “Degree of hepatomegaly (change rate of the liver weight)” value was “+8%”.
For the compound `CCCCCCCCCCCCCCCCOc1c2ncnc(SCc3ccc(Cl)c(Cl)c3)c2nn1C` [Example 20, 2-Methyl-3-n-hexadecyloxy-7-(3,4-dichlorophenylmethylthio)-pyrazolo[4,3-d]pyrimidine], the inhibition in vivo at 300 mg/kg was found to be 19%.
Consider `CCCCCCCCCCCCCCCCOc1c2ncnc(SCCc3ccccc3)c2nn1C` [Example 21, 2-Methyl-3-n-hexadecyloxy-7-phenethylthio-pyrazolo[d]pyrimidine], for which the inhibition in vivo at 300 mg/kg turned out to be 10%.
With `C=CCSc1ncnc2c(OCCCCCCCCCCCCCCCC)n(C)nc12` [Example 22], the inhibition in vivo at 300 mg/kg was determined as 11%.
`CCCCCCCCCCCCCCCCOc1c2ncnc(SCCCCCC)c2nn1C` [Example 23, 2-Methyl-3-n-hexadecyloxy-7-n-hexylthiopyrazolo[4,3-d]pyrimidine]: the change in vivo at 300 mg/kg is 30%, the inhibition in vivo at 300 mg/kg is 39% and the “Degree of hepatomegaly (change rate of the liver weight)” value is given as 0%.
Take `CCCCCCCCCCCCCCCCOc1c2ncnc(SCCCCCCCCCCCCCCCC)c2nn1C` [Example 24, 2-Methyl-3-n-hexadecyloxy-7-n-hexadecylthio-pyrazolo[4,3-d]pyrimidine]: the inhibition in vivo at 300 mg/kg amounted to 41%.
For the compound `CCCCCCCCCCCCCCCCOc1c2ncnc(SC3C(=O)OCC3C)c2nn1C` (stereo not drawn) [Example 25, 2-Methyl-3-n-hexadecyloxy-7-[4-(3-methyl-5-oxotetrahydrofuranyl)thio]-pyrazolo[4,3-d]pyrimidine], the inhibition in vivo at 300 mg/kg amounted to 11%.
On the same count and under the same terms, in the case of `CCCCCCCCCCCCCCCCOc1c2ncnc(SC(C)(C)C(=O)OCC)c2nn1C` [Example 26, 2-Methyl-3-n-hexadecyloxy-7-(1-ethoxycarbonyl-1-methyl-ethylthio)pyrazolo [4,3-d]pyrimidine] it was 16%; in that of `CCCCCCCCOc1c2ncnc(SC(C)(C)C(=O)OCC)c2nn1C` [Example 27, 2-Methyl-3-n-octyloxy-7-(1-ethoxycarbonyl1-methyl-ethylthio)-pyrazolo[4,3-d]pyrimidine], 16%; in that of `CCCCCCCCCCCCOc1c2ncnc(SC(C)(C)C(=O)OCC)c2nn1C` [Example 28, 2-Methyl-3-n-dodecyloxy-7-(1-ethoxycarbonyl-1-methyl-ethylthio)-pyrazolo[4,3-d]pyrimidine], 36%.
Turning to `CCCCCCCCCCCCCCCCCCCCOc1c2ncnc(SC(C)(C)C(=O)OCC)c2nn1C` [Example 29, 2-Methyl-3-n-eicosyloxy-7-(1-ethoxycarbonyl-1-methyl-ethylthio)-pyrazolo[4,3-d]pyrimidine], the inhibition in vivo at 300 mg/kg came out at 16%.
Same read-out and setting: the value for `CCOC(=O)C(C)(C)Sc1ncnc2c(OCCO)n(C)nc12` [Example 30, 2-Methyl-3-(2-hydroxyethyloxy)-7-(1-ethoxycarbonyl-1-methyl-ethylthio) pyrazolo[4,3-d]pyrimidine] was 28%; that for `CCCCCCCOc1c2ncnc(SCC(=O)OCC)c2nn1-c1ccccc1` [Example 31, 2-Phenyl-3-n-heptyloxy-7-ethoxycarbonylmethylthio-pyrazolo[4,3-d]pyrimidine] was 51%.
Same read-out and setting: in the case of `CCCCCCCCCCCCOc1c2ncnc(SC(C)(C)C(=O)OCC)c2nn1-c1ccccc1` [Example 32, 2-Phenyl-3-n-dodecyloxy-7-(1-ethoxycarbonyl-1-methylethylthio)-pyrazolo[4,3-d]pyrimidine] it was 50%; in that of `CCCCCCCCCCCCCCCCOc1c2ncnc(SCC(=O)OCCCC)c2nn1C` [Example 33, 2-Methyl-3-n-hexadecyloxy-7-n-butoxycarbonylmethylthio-pyrazolo[4,3-d]pyrimidine], 39%; in that of `CCOC(=O)CSc1ncnc2c(OC3CCC(C4CCCCC4)CC3)n(C)nc12` (stereo not drawn) [Example 34, 2-Methyl-3-(4-cyclohexyl-cyclohexyloxy)-7-ethoxycarbonylmethylthio-pyrazolo[4,3-d]pyrimidine], 12%.
On the same count and under the same terms, in the case of `CCOC(=O)CSc1ncnc2c(OC3CCC(C)CC3)n(C)nc12` (stereo not drawn) [Example 35, 2-Methyl-3-(4-methylcyclohexyloxy)-7-ethoxycarbonylmethylthio-pyrazolo[4,3-d]pyrimidine] it was 13%; in that of `CCOC(=O)CSc1ncnc2c(OCCOCc3ccccc3)n(C)nc12` [Example 36, 2-Methyl-3-(2-benzyloxyethoxy)-7-ethoxycarbonylmethylthio-pyrazolo[4,3-d]pyrimidine], 44%.
For `CCOC(=O)CSc1ncnc2c(OCCOCc3ccc(CC)cc3)n(C)nc12` [Example 37, 2-Methyl-3-[2-(4-ethylbenzyloxy)ethoxy]7-ethoxycarbonylmethylthio-pyrazolo[4,3-d]pyrimidine], the inhibition in vivo at 300 mg/kg is 37%.
Consider `CCOC(=O)CSc1ncnc2c(OCCOCc3ccc(C(C)(C)C)cc3)n(C)nc12` [Example 38, 2-Methyl-3-[2-(4-t-butylbenzyloxy)ethoxy]-7-ethoxycarbonylmethylthio-pyrazolo[4,3-d]pyrimidine], for which the inhibition in vivo at 300 mg/kg came to 15%.
On to `CCCCOCCOCCOc1c2ncnc(SCC(=O)OCC)c2nn1C` [Example 39, 2-Methyl-3-(3,6-dioxadecyloxy)-7-ethoxycarbonylmethylthio-pyrazolo[4,3-d]pyrimidine], for which the inhibition in vivo at 300 mg/kg was determined as 11%.
On the same count and under the same terms, the value for `CCOC(=O)CSc1ncnc2c(OCCC(C)CCCC(C)CCCC(C)CCCC(C)C)n(C)nc12` (stereo not drawn) [Example 40, 2-Methyl-3-(3,7,11,15-tetramethylhexadecyloxy)-7-ethoxycarbonylmethylthio-pyrazolo[4,3-d]pyrimidine] was 50%.
